Where a name gives a salt, the structure may show the parent alone.

The test system of this assay is ISG reporter activity in THP1-Dual cell. Nature of the assay: ISG reporter assay. Format: cell-based. Particulars: Homo sapiens, compounds incubated with cells for 24 hours, QUANTI-Blue, absorbance at 655 nm. Here is the method: [Worded in the source for another cell line; this cell line is reported under the same test.] THP1-Blue cells (cat. no. thp-isg) were purchased from InvivoGen (Sandiago, USA). Penicillin—streptomycin (cat. no. L0022-100), Fetal Bovine Serum (FBS) (cat. no. S1480-500) and Roswell Park Memorial Institute (RPMI) 1640 media (cat. L0498-500) were purchased from biowest (Nuaille, France). Zeocin (cat. no. ant-zn-OS) and Normocin (cat. no. ant-nr-1) were purchased from InvivoGen (Sandiago, USA). QUANTI-Blue™ (cat. no. rep-qbs) was purchased from InvivoGen. THP1-Blue cells were cultured in RPMI 1640 medium with 10% heat-inactivated FBS, 100 μg/ml Normocin, 100 μg/ml Zeocin and 100 U/ml-100 μg/ml penicillin-streptomycin. The cells were incubated at 37° C. in a humidified atmosphere of 5% CO2.
THP1-Blue cells were seeded at 5×10^4 cells/well (90 μl/well). 10 μl of compounds were added to the cells and incubated for 24 hours. 20 μl of cell culture supernatant was dispensed new 96-well plate (cat. no. 30096) with 180 μl of QUANTI-Blue™ solution and incubated for 15 minutes at 37° C. The absorbance was measured by Varioskan Lux (Thermofisher Scientific, USA) at 655 nm.
On the technique in general: Reporter assays use an easily measured gene product as a stand-in for the process of interest.

One may read the EC50 as the concentration that produces a half-maximal response. Turning to `CCn1nc(C)cc1C(=O)Nc1nc2cc(C(N)=O)cc(OC)c2n1C/C=C/Cn1c(NC(=O)c2cc(C)nn2CC)nc2cc(C(N)=O)cc(OCC#CC3CCN(C(=O)N4CCN(C(=O)OC(C)(C)C)CC4)CC3)c21` [Example 16, tert-butyl (E)-4-(4-(3-((5-carbamoyl-1-(4-(5-carbamoyl-2-(1-ethyl-3-methyl-1H-pyrazole-5-carboxamido)-7-methoxy-1H-benzo[d]imidazol-1-yl)but-2-en-1-yl)-2-(1-ethyl-3-methyl-1H-pyrazole-5-carboxamido)-1H-benzo[d]imidazol-7-yl)oxy)prop-1-yn-1-yl)piperidine-1-carbonyl)piperazine-1-carboxylate], the EC50 was under 50 nM.
In the case of `CCn1nc(C)cc1C(=O)Nc1nc2cc(C(N)=O)cc(OC)c2n1C/C=C/Cn1c(NC(=O)c2cc(C)nn2CC)nc2cc(C(N)=O)cc(OCC#CCC3CN(C(=O)OC(C)(C)C)C3)c21` [Example 50, tert-butyl (E)-3-(4-((5-carbamoyl-1-(4-(5-carbamoyl-2-(1-ethyl-3-methyl-1H-pyrazole-5-carboxamido)-7-methoxy-1H-benzo[d]imidazol-1-yl)but-2-en-1-yl)-2-(1-ethyl-3-methyl-1H-pyrazole-5-carboxamido)-1H-benzo[d]imidazol-7-yl)oxy)but-2-yn-1-yl)azetidine-1-carboxylate], the concentration for a half-maximal effect (EC50) is under 50 nM.
To `CCn1nc(C)cc1C(=O)Nc1nc2cc(C(N)=O)cc(OC)c2n1C/C=C/Cn1c(NC(=O)c2cc(C)nn2CC)nc2cc(C(N)=O)cc(OCC#CC3CCN(S(=O)(=O)c4ccc(C)cc4)CC3)c21` [Example 23, (E)-1-(4-(5-carbamoyl-2-(1-ethyl-3-methyl-1H-pyrazole-5-carboxamido)-7-((3-(1-tosylpiperidin-4-yl)prop-2-yn-1-yl)oxy)-1H-benzo[d]imidazol-1-yl)but-2-en-1-yl)-2-(1-ethyl-3-methyl-1H-pyrazole-5-carboxamido)-7-methoxy-1H-benzo[d]imidazole-5-carboxamide] belongs under 50 nM; to `CCn1nc(C)cc1C(=O)Nc1nc2cc(C(N)=O)cc(OC)c2n1C/C=C/Cn1c(NC(=O)c2cc(C)nn2CC)nc2cc(C(N)=O)cc(OCC#CC3CCN(S(=O)(=O)N4CCNCC4)CC3)c21` [Example 29, (E)-1-(4-(5-carbamoyl-2-(1-ethyl-3-methyl-1H-pyrazole-5-carboxamido)-7-((3-(1-(piperazin-1-ylsulfonyl)piperidin-4-yl)prop-2-yn-1-yl)oxy)-1H-benzo[d]imidazol-1-yl)but-2-en-1-yl)-2-(1-ethyl-3-methyl-1H-pyrazole-5-carboxamido)-7-methoxy-1H-benzo[d]imidazole-5-carboxamide hydrochloride], under 50 nM.
Regarding `CCn1nc(C)cc1C(=O)Nc1nc2cc(C(N)=O)cc(OC)c2n1C/C=C/Cn1c(NC(=O)c2cc(C)nn2CC)nc2cc(C(N)=O)cc(OCC#CC3CCN(S(=O)(=O)N(C)C)CC3)c21` [Example 24, (E)-1-(4-(5-carbamoyl-2-(1-ethyl-3-methyl-1H-pyrazole-5-carboxamido)-7-methoxy-1H-benzo[d]imidazol-1-yl)but-2-en-1-yl)-7-((3-(1-(N,N-dimethylsulfamoyl)piperidin-4-yl)prop-2-yn-1-yl)oxy)-2-(1-ethyl-3-methyl-1H-pyrazole-5-carboxamido)-1H-benzo[d]imidazole-5-carboxamide], the EC50 was under 50 nM.
On to `CCn1nc(C)cc1C(=O)Nc1nc2cc(C(N)=O)cc(OC)c2n1C/C=C/Cn1c(NC(=O)c2cc(C)nn2CC)nc2cc(C(N)=O)cc(OCC#CCN3CCN(C(=O)OC(C)(C)C)CC3)c21` [Example 37], for which the EC50 is under 50 nM.

These data come from patent publication US20230219931A1, “FUSED HETEROARYL HYDROXAMATES AS STING AGONISTS” (BiSiChem Co., Ltd., priority 2022, published 2023).
